Assay results: patent publication US7271164B2, “Cyclohepta[b][1,4]diazepino[6,7,1,-hi]indoles and derivatives” (Wyeth, priority 2000, dated 2007)
pEC50, pKd, pKi: −log10 of the molar value. Counter-ions that a name gives are not always drawn.

How the values were obtained:
[1] = target: T1, human 5-hydroxytryptamine2C (h5HT2C) receptor (Homo sapiens, UniProt P28335); experiment: 5HT2C Receptor Binding Test Procedure ([125I] DOI displacement, CHO cell membranes)
T1 construct: expressed in transfected cells; host or cells: CHO (Chinese Hamster Ovary) cells; membrane preparation
T1 sequence (P28335 33-458): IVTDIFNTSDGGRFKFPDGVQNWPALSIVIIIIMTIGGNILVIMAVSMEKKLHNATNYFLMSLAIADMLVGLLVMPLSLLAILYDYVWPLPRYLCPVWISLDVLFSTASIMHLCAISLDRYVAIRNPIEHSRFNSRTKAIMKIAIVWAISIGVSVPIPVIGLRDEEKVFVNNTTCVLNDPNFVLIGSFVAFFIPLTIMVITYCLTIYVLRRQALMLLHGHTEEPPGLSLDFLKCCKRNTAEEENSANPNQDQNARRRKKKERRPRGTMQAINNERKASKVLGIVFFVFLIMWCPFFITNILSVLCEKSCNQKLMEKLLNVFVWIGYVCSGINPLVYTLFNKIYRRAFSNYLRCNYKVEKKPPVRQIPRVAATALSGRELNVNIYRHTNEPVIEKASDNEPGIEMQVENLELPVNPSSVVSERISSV

[2] = target: T2, human 5-HT2C receptor (Homo sapiens, UniProt P28335); experiment: Stimulation of [3H] Inositol Monophosphate Production by 5-HT2C Agonists (transfected CHO cells); type: cell-based
T2 construct: expressed in transfected cells; host or cells: CHO cells
T2 sequence (P28335 33-458): T1 sequence (P28335 33-458)
Protocol: One (1) ml of maintenance medium containing 1 μCi/ml myo-[^3H] inositol was added to each well. After 48 hours labeling, the cells were washed once with 0.5 ml DMEM containing 25 mM HEPES and 10 mM LiCl, then preincubated with the medium for 30 min (antagonists were included in this period if tested). At the end of the preincubation, the medium was removed, the cells were then incubated with test compounds (in presence of antagonists if needed) for 30 min. The reaction was terminated by removal of the incubation solution and addition of 0.5 ml ice-cold 5% PCA, followed by 15 to 30 min incubation on ice. 200 μl of 0.5 M Tes/1.5 M K2CO3 was added to each well to neutralize to pH 7, and plates were left on ice for another 15 to 30 min to precipitate all salts. The liquid and solid phases were separated by centrifugation.
A portion (350 μl) of the upper aqueous phase was applied to Dowex AG-1X8 (formate form, 100-200 mesh) columns. The columns were then washed stepwise with 10 ml of water and 10 ml of 25 mM ammonium formate to remove free myo-[^3H]inositol and deacylated phosphoinositol, respectively. Finally 10 ml of 0.2 M ammonium formate solution was applied to the columns to elute [^3H] inositol monophosphate ([^3H] IP1) directly into scintillation vials. Of this eluate, 1 ml was used to determine radioactivity by scintillation counting. […]

Work on `c1cc2c3c(c1)C1CCCCCC1N3CCNC2` (stereo not drawn) (as salt: hydrochloride) [Example 2, 1,2,3,4,8,9,10,11,12,12a-Decahydro-7bH-cyclohepta[b][1,4]diazepino[6,7,1-hi]indole] yielded a melting point of 258 to 263 °C.

Work on `c1cc2c3c(c1)c1c(n3CCNC2)CCCCC1` (as salt: hydrochloride) [Example 1, 1,2,3,4,9,10,11,12-Octahydro-8H-cyclohepta[b][1,4]diazepino[6,7,1-hi]indole] yielded a melting point of 303 to 306 °C.

For `CSc1ccc2c(c1)C(N1CCN(C)CC1)Cc1ccccc1S2` (stereo not drawn) [Methiothepin], the pKi ([1]; reference compounds, [125I] DOI binding, h5HT2C in CHO membranes, read-out: Ki value and 95% confidence interval) was 8.34.

`COc1cc(CC(C)N)c(OC)cc1I` (stereo not drawn) [[^125I] DOI] gave a pKd ([1]; read-out: dissociation constant, KD of [125I] DOI at the human serotonin 5HT2C receptor, saturation binding with increasing concentrations of [125I] DOI) of 9.40.

Work on `c1cc2c3c(c1)c1c(n3CCNC2)CCCCC1` [Example 1, 1,2,3,4,9,10,11,12-Octahydro-8H-cyclohepta[b][1,4]diazepino[6,7,1-hi]indole] yielded an Emax ([2]; CHO, read-out: 5HT2C % Emax (5HT, 100%)) of 73% and a pEC50 ([2]; read-out: Stimulation of IP3 (EC50)) of 6.30.
